In ChEMBL document CHEMBL6127085, “Design, synthesis and evaluation of novel LpxC inhibitors containing a hydrazone moiety as Gram-negative antibacterial agents” (Eur J Med Chem, 2024):
pIC50: −log10 of the molar value. Converted amounts (≈) assume the structure as drawn.

What was measured:
Escherichia coli [1] = test: Antibacterial activity against Escherichia coli ATCC25922 assessed as reduction in bacterial growth measured after 18 to 24 hrs by CLSI protocol based method; format: functional; settings: time 18-24 hrs
Pseudomonas aeruginosa [2] = test: Antibacterial activity against Pseudomonas aeruginosa ATCC27853 assessed as reduction in bacterial growth measured after 18 to 24 hrs by CLSI protocol based method; format: functional; settings: time 18-24 hrs
Pseudomonas aeruginosa [3] = test: Antibacterial activity against Pseudomonas aeruginosa clinical isolate PAE22-1 assessed as reduction in bacterial growth measured after 18 to 24 hrs by CLSI protocol based method; format: functional; settings: time 18-24 hrs
Klebsiella pneumoniae [4] = test: Antibacterial activity against Klebsiella pneumoniae ATCC700603 assessed as reduction in bacterial growth measured after 18 to 24 hrs by CLSI protocol based method; format: functional; settings: time 18-24 hrs
Klebsiella pneumoniae [5] = test: Antibacterial activity against Klebsiella pneumoniae clinical isolate KPN+22-1 assessed as reduction in bacterial growth measured after 18 to 24 hrs by CLSI protocol based method; format: functional; settings: time 18-24 hrs
Escherichia coli [6] = test: Potency index, ratio of CHIR-090 MIC to test compound MIC for antibacterial activity against Escherichia coli ATCC25922 assessed as reduction in bacterial growth measured after 18 to 24 hrs by CLSI protocol based method; format: functional; settings: time 18-24 hrs
[7] = Metabolic stability in human liver microsomes assessed as half life at 1 uM preincubated for 5 mins followed by NADPH addition and measured after 5 to 60 mins by LC-MS analysis; format: ADME, Microsome; settings: liver microsomes, time 10-65 min
[8] = Metabolic stability in rat liver microsomes assessed as half life at 1 uM preincubated for 5 mins followed by NADPH addition and measured after 5 to 60 mins by LC-MS analysis; format: ADME, Microsome; settings: liver microsomes, time 10-65 min
[9] = Metabolic stability in mouse liver microsomes assessed as half life at 1 uM preincubated for 5 mins followed by NADPH addition and measured after 5 to 60 mins by LC-MS analysis; format: ADME, Microsome; settings: liver microsomes, time 10-65 min
[10] = Metabolic stability in human liver microsomes assessed as intrinsic clearance at 1 uM preincubated for 5 mins followed by NADPH addition and measured after 5 to 60 mins by LC-MS analysis; format: ADME, Microsome; settings: time 10-65 min, read-out: CLH
[11] = Metabolic stability in rat liver microsomes assessed as intrinsic clearance at 1 uM preincubated for 5 mins followed by NADPH addition and measured after 5 to 60 mins by LC-MS analysis; format: ADME, Microsome; settings: liver microsomes, time 10-65 min, read-out: CLH
[12] = Metabolic stability in mouse liver microsomes assessed as intrinsic clearance at 1 uM preincubated for 5 mins followed by NADPH addition and measured after 5 to 60 mins by LC-MS analysis; format: ADME, Microsome; settings: liver microsomes, time 10-65 min, read-out: CLH
[13] = Intrinsic clearance in human; format: ADME; settings: read-out: CLH
[14] = Intrinsic clearance in rat; format: ADME; settings: read-out: CLH
[15] = Intrinsic clearance in mouse; format: ADME, organism-based; settings: read-out: CLH
[16] = Stability in mouse plasma at 1 uM incubated for 6 hrs by LC-MS/MS analysis; format: ADME, cell-free; settings: read-out: Stability
HepG2 = test: Cytotoxicity against human HepG2 cells assessed as inhibition of cell growth measured after 48 hrs by MTT assay; format: functional, cell-based; settings: HepG2, 48 h
[17] = Plasma protein binding in human assessed as drug recovery at 1 uM incubated for 6 hrs by LC-MS/MS analysis; format: ADME, cell-free; settings: read-out: Drug recovery
[18] = Stability in human plasma at 1 uM incubated for 6 hrs by LC-MS/MS analysis; format: ADME, cell-free; settings: read-out: Stability
[19] = Plasma protein binding in rat assessed as drug recovery at 1 uM incubated for 6 hrs by LC-MS/MS analysis; format: ADME, cell-free; settings: read-out: Drug recovery
[20] = Stability in rat plasma at 1 uM incubated for 6 hrs by LC-MS/MS analysis; format: ADME, cell-free; settings: read-out: Stability
[21] = Plasma protein binding in mouse assessed as drug recovery at 1 uM incubated for 6 hrs by LC-MS/MS analysis; format: ADME, cell-free; settings: read-out: Drug recovery
[22] = Half life in male Sprague-Dawley rat at 10 mg/kg, IG measured upto 24 hrs by LC-MS analysis; format: ADME, organism-based; settings: in vivo, po
[23] = Tmax in male Sprague-Dawley rat at 10 mg/kg, IG measured upto 24 hrs by LC-MS analysis; format: ADME, organism-based; settings: in vivo, po
[24] = Cmax in male Sprague-Dawley rat at 10 mg/kg, IG measured upto 24 hrs by LC-MS analysis; format: ADME, organism-based; settings: in vivo, po
[25] = AUC (0 to t) in male Sprague-Dawley rat at 10 mg/kg, IG measured upto 24 hrs by LC-MS analysis; format: ADME, organism-based; settings: in vivo, po
[26] = MRT (0 to t) in male Sprague-Dawley rat at 10 mg/kg, IG measured upto 24 hrs by LC-MS analysis; format: ADME, organism-based; settings: in vivo, po
[27] = Oral bioavailability in male Sprague-Dawley rat at 10 mg/kg, IG measured upto 24 hrs by LC-MS analysis; format: ADME, organism-based; settings: in vivo
[28] = Half life in male Sprague-Dawley rat at 1 mg/kg, iv measured upto 24 hrs by LC-MS analysis; format: ADME, organism-based; settings: in vivo
[29] = AUC (0 to t) in male Sprague-Dawley rat at 1 mg/kg, iv measured upto 24 hrs by LC-MS analysis; format: ADME, organism-based; settings: in vivo
[30] = Clearance in male Sprague-Dawley rat at 1 mg/kg, iv measured upto 24 hrs by LC-MS analysis; format: ADME, organism-based; settings: in vivo
[31] = MRT (0 to t) in male Sprague-Dawley rat at 1 mg/kg, iv measured upto 24 hrs by LC-MS analysis; format: ADME, organism-based; settings: in vivo
[32] = Volume of distribution at steady state in male Sprague-Dawley rat at 1 mg/kg, iv measured upto 24 hrs by LC-MS analysis; format: ADME, organism-based; settings: in vivo, read-out: Vdss

Row | Structure (SMILES) | MIC (Escherichia coli [1]) [µg/mL] | MIC (Pseudomonas aeruginosa [2]) [µg/mL] | MIC (Pseudomonas aeruginosa [3]) [µg/mL] | MIC (Klebsiella pneumoniae [4]) [µg/mL] | MIC (Klebsiella pneumoniae [5]) [µg/mL] | half-life at 1 µM [7] [h] | half-life at 1 µM [8] [h] | half-life at 1 µM [9] [h] | microsomal CLint at 1 µM [10] [µL/min/mg] | microsomal CLint at 1 µM [11] [µL/min/mg] | microsomal CLint at 1 µM [12] [µL/min/mg] | CLint scaled [13] [mL/min/kg] | CLint scaled [14] [mL/min/kg] | CLint scaled [15] [mL/min/kg] | also measured
1 | C[C@@H](O)[C@H](NC(=O)c1ccc(C#Cc2ccc(/C=N/N3CCN(C(=O)OC(C)(C)C)CC3)cc2)cc1)C(=O)NO | 1 (≈ 1.82 µM) | > 64 | 16 (≈ 29.1 µM) | > 64 | 8 (≈ 14.6 µM) | – | – | – | – | – | – | – | – | – | –
2 | C[C@@H](O)[C@H](NC(=O)c1ccc(C#Cc2ccc(CN3CCOCC3)cc2)cc1)C(=O)NO | 0.5 (≈ 1.14 µM) | 4 (≈ 9.14 µM) | 2 (≈ 4.57 µM) | 8 (≈ 18.3 µM) | 1 (≈ 2.29 µM) | 16.8 | 0.362 | 1.23 | 1.38 | 64 | 18.8 | 1.3 | 115 | 74.2 | remaining at 6 h, 1 µM [16]: 93.2%; pIC50 (HepG2): < 4.52; recovery at 6 h, 1 µM [17]: 101%; remaining at 6 h, 1 µM [18]: 106%; recovery at 6 h, 1 µM [19]: 91.7%; remaining at 6 h, 1 µM [20]: 94.5%; recovery at 6 h, 1 µM [21]: 98.6%; half-life [22]: 1.12 h; Tmax [23]: 0.25 h; Cmax [24]: 262 ng/mL; AUC(0-t) at 24 h [25]: 243 ng·h/mL; MRT last at 24 h [26]: 1.09 h; bioavailability [27]: 10.6%; half-life [28]: 0.29 h; AUC(0-t) at 24 h [29]: 249 ng·h/mL; clearance [30]: 66.7 mL/min/kg; MRT last at 24 h [31]: 0.24 h; Vd [32]: 0.98 L/kg
3 | CCOC(=O)N1CCN(/N=C/c2ccc(C#Cc3ccc(C(=O)N[C@H](C(=O)NO)[C@@H](C)O)cc3)cn2)CC1 | 2 (≈ 3.83 µM) | 16 (≈ 30.6 µM) | 8 (≈ 15.3 µM) | > 64 | 32 (≈ 61.2 µM) | – | – | – | – | – | – | – | – | – | –
4 | CCN1CCN(/N=C/c2ccc(C#Cc3ccc(C(=O)N[C@H](C(=O)NO)[C@@H](C)O)cc3)cc2)CC1 | 0.5 (≈ 1.05 µM) | 4 (≈ 8.38 µM) | 2 (≈ 4.19 µM) | 16 (≈ 33.5 µM) | 4 (≈ 8.38 µM) | – | – | – | – | – | – | – | – | – | –
5 | C[C@@H](O)[C@H](NC(=O)c1ccc(C#Cc2ccc(/C=N/N3CCN(C(=O)C(C)(C)C)CC3)cc2)cc1)C(=O)NO | 0.25 (≈ 0.468 µM) | > 32 | > 32 | > 32 | 8 (≈ 15 µM) | 1.37 | 1.48 | 2.53 | 19.4 | 15.6 | 9.29 | 18.4 | 28.1 | 36.6 | –

Further lines, with some results ahead:

Row | MIC (Escherichia coli [1]) [µg/mL] | MIC (Pseudomonas aeruginosa [2]) [µg/mL] | MIC (Pseudomonas aeruginosa [3]) [µg/mL] | MIC (Klebsiella pneumoniae [4]) [µg/mL] | MIC (Klebsiella pneumoniae [5]) [µg/mL] | half-life at 1 µM [7] [h] | half-life at 1 µM [8] [h] | half-life at 1 µM [9] [h] | microsomal CLint at 1 µM [10] [µL/min/mg] | microsomal CLint at 1 µM [11] [µL/min/mg] | microsomal CLint at 1 µM [12] [µL/min/mg] | CLint scaled [13] [mL/min/kg] | CLint scaled [14] [mL/min/kg] | CLint scaled [15] [mL/min/kg] | Structure (SMILES) | also measured
6 | 0.25 (≈ 0.536 µM) | > 64 | 8 (≈ 17.1 µM) | > 64 | 1 (≈ 2.14 µM) | – | – | – | – | – | – | – | – | – | C[C@@H](O)[C@H](NC(=O)c1ccc(C#Cc2ccc(/C=N/N3CCSCC3)cc2)cc1)C(=O)NO | Ratio (Escherichia coli [6]): 2
7 | 0.03 (≈ 0.0593 µM) | 4 (≈ 7.91 µM) | 4 (≈ 7.91 µM) | 16 (≈ 31.6 µM) | 2 (≈ 3.96 µM) | 5.15 | 3.5 | 3.37 | 4.51 | 6.7 | 7.23 | 4.26 | 12.1 | 28.5 | CCC(=O)N1CCN(/N=C/c2ccc(C#Cc3ccc(C(=O)N[C@H](C(=O)NO)[C@@H](C)O)cc3)cc2)CC1 | –
8 | 0.03 (≈ 0.058 µM) | 2 (≈ 3.86 µM) | 4 (≈ 7.73 µM) | 16 (≈ 30.9 µM) | 2 (≈ 3.86 µM) | 4.9 | 4.58 | 2.08 | 4.73 | 5.05 | 12.2 | 4.47 | 9.09 | 48 | C[C@@H](O)[C@H](NC(=O)c1ccc(C#Cc2ccc(/C=N/N3CCN(C(=O)C4CC4)CC3)cc2)cc1)C(=O)NO | –
9 | 0.25 (≈ 0.555 µM) | > 64 | 1 (≈ 2.22 µM) | > 64 | 1 (≈ 2.22 µM) | 4.98 | 7.9 | 6.1 | 7.16 | 4.53 | 1.79 | 6.76 | 8.15 | 7.04 | C[C@@H](O)[C@H](NC(=O)c1ccc(C#Cc2ccc(/C=N/N3CCOCC3)cc2)cc1)C(=O)NO | Ratio (Escherichia coli [6]): 2
10 | 0.03 (≈ 0.0615 µM) | 2 (≈ 4.1 µM) | 8 (≈ 16.4 µM) | 32 (≈ 65.6 µM) | 2 (≈ 4.1 µM) | – | – | – | – | – | – | – | – | – | C#CCN1CCN(/N=C/c2ccc(C#Cc3ccc(C(=O)N[C@H](C(=O)NO)[C@@H](C)O)cc3)cc2)CC1 | –
